The results in this text go back to patent US9051310B2, “Nicotinamide derivative or salt thereof” (FUJIFILM Corporation, priority 2011, dated 2015).

For orientation: IC50 means the midpoint of a concentration-inhibition curve.

This assay has as its target T1, glutathione S-transferase (GST)-linked full-length human Syk protein (Homo sapiens, UniProt P43405).
T1 construct: glutathione S-transferase (GST)-linked full-length human Syk protein; purchased Carna Biosciences; host or cells: Baculovirus expression system
The assay can be described thus: Syk enzyme assay. It is filed as biochemical. The settings on record: 0.83 nM Syk, time-resolved fluorescence; read-out: IC50 of Syk-inhibitory activity. In a few lines: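 Phosphotyrosine on a biotin-peptide substrate (0.5 μM) was read by time-resolved fluorescence at 615 and 665 nm with Eu-anti-pTyr antibody and APC-streptavidin after 1 h EDTA stop.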

With `CCn1ncc2cc(Nc3nc(N[C@H](C4CCCCC4)[C@H](C)N)c(F)cc3C(N)=O)ccc21` [Example 2-264, 6-(((1R,2S)-2-amino-1-cyclohexylpropyl)amino)-2-((1-ethyl-1H-indazol-5-yl)amino)-5-fluoronicotinamide], the IC50 is 10 to 50 nM.

On to `C[C@H](N)[C@H](Nc1nc(Nc2ccc(F)cc2)c(C(N)=O)cc1F)C1CCC1` [Example 2-60, 6-(((1R,2S)-2-amino-1-cyclobutylpropyl)amino)-5-fluoro-2-((4-fluorophenyl)amino)nicotinamide], for which the IC50 was 10 to 50 nM.

On to `CC[C@@H](Nc1nc(Nc2cccc3c2cnn3CCOC)c(C(N)=O)cc1F)[C@H](C)N` [Example 2-304, 6-(((2S,3R)-2-aminopentan-3-yl)amino)-5-fluoro-2-((1-(2-methoxyethyl)-1H-indazol-4-yl)amino)nicotinamide], for which the IC50 was less than 10 nM. To `CC(C)[C@@H](Nc1nc(Nc2ccc3c(cnn3C)c2)c(C(N)=O)cc1F)[C@H](C)N` [Example 2-104, 6-(((2S,3R)-2-amino-4-methylpentan-3-yl)amino)-5-fluoro-2-((1-methyl-1H-indazol-5-yl)amino)nicotinamide] belongs 50 to 100 nM; to `CCOc1ncc(Nc2nc(N[C@H](C3CC3)[C@H](C)N)c(F)cc2C(N)=O)cc1-n1cccn1` [Example 2-164], 10 to 50 nM; to `CCCC[C@@H](Nc1nc(Nc2cnc3c(c2)c(C)nn3C)c(C(N)=O)cc1F)[C@H](C)N` [Example 2-244, 6-(((2S,3R)-2-aminoheptan-3-yl)amino)-2-((1,3-dimethyl-1H-pyrazolo[3,4-b]pyridin-5-yl)amino)-5-fluoronicotinamide], 10 to 50 nM. Take `CN(C)c1nn(C)c2ncc(Nc3nc(N[C@@H]4CCCC[C@@H]4N)c(F)cc3C(N)=O)cc12` [Example 2-286, 6-(((1R,2S)-2-aminocyclohexyl)amino)-2-((3-(dimethylamino)-1-methyl-1H-pyrazolo[3,4-b]pyridin-5-yl)amino)-5-fluoronicotinamide]: the IC50 lay in the range of 10 to 50 nM. Turning to `CC[C@@H](Nc1nc(Nc2ccc3c(c2)c(N2CCCC2)nn3C)c(C(N)=O)cc1F)[C@H](C)N` [Example 2-429, 6-(((2S,3R)-2-aminopentan-3-yl)amino)-5-fluoro-2-((1-methyl-3-(pyrrolidin-1-yl)-1H-indazol-5-yl)amino)nicotinamide], the IC50 was less than 10 nM. In the case of `CC(C)C[C@@H](Nc1nc(Nc2cc(F)c3c(c2)c(N(C)C)nn3C)c(C(N)=O)cc1F)[C@H](C)N` [Example 2-190, 6-(((2S,3R)-2-amino-5-methylhexan-3-yl)amino)-2-((3-(dimethylamino)-7-fluoro-1-methyl-1H-indazol-5-yl)amino)-5-fluoronicotinamide] it was less than 10 nM; in that of `C[C@H](N)[C@H](Nc1nc(Nc2ccc3c(c2)c(N(C)C)nn3C)c(C(N)=O)cc1F)c1cccc(F)c1` [Example 2-452, 6-(((1R,2S)-2-amino-1-(3-fluorophenyl)propyl)amino)-2-((3-(dimethylamino)-1-methyl-1H-indazol-5-yl)amino)-5-fluoronicotinamide], less than 10 nM; in that of `C[C@H](N)[C@@H](CC1CC1)Nc1nc(Nc2ccc3nn(C)c(N(C)C)c3c2)c(C(N)=O)cc1F` [Example 2-14, 6-(((2R,3S)-3-amino-1-cyclopropylbutan-2-yl)amino)-2-((3-(dimethylamino)-2-methyl-2H-indazol-5-yl)amino)-5-fluoronicotinamide], 10 to 50 nM. Consider `CC[C@H](N)[C@@H](C)Nc1nc(Nc2cnc(OC)c(-n3nccn3)c2)c(C(N)=O)cc1F` [Example 2-279, 6-(((2R,3S)-3-aminopentan-2-yl)amino)-5-fluoro-2-((6-methoxy-5-(2H-1,2,3-triazol-2-yl)pyridin-3-yl)amino)nicotinamide], for which the IC50 was in the range of 10 to 50 nM. In the case of `C[C@H](N)[C@H](Nc1nc(Nc2cncc(-n3cc(Cl)cn3)c2)c(C(N)=O)cc1F)C1CC1` [Example 2-520, 6-(((1R,2S)-2-amino-1-cyclopropylpropyl)amino)-2-((5-(4-chloro-1H-pyrazol-1-yl)pyridin-3-yl)amino)-5-fluoronicotinamide], the IC50 is less than 10 nM.
